{"source": "patent US20240210412A1", "about": "“SULFONYL-TRIAZOLE COMPOUNDS USEFUL AS LIGANDS AND INHIBITORS OF PROSTAGLANDIN REDUCTASE 2” (University of Virginia Patent Foundation, priority 2021, published 2024)", "test_in_all_cases": "SILAC LC-MS ABPP", "assay_type_in_all_cases": "cell-based", "details_in_all_cases": "25 μM 2 h, live DM93 cells", "key": {"[1]": {"biological_target": "T1, Q14157 (Homo sapiens, UniProt Q14157)", "T1 construct": "performing SuTEx compound screening directly in cells; endogenous in cells; host or cells: DM93 cells (SILAC), soluble fraction", "T1 sequence (Q14157 1-1087)": "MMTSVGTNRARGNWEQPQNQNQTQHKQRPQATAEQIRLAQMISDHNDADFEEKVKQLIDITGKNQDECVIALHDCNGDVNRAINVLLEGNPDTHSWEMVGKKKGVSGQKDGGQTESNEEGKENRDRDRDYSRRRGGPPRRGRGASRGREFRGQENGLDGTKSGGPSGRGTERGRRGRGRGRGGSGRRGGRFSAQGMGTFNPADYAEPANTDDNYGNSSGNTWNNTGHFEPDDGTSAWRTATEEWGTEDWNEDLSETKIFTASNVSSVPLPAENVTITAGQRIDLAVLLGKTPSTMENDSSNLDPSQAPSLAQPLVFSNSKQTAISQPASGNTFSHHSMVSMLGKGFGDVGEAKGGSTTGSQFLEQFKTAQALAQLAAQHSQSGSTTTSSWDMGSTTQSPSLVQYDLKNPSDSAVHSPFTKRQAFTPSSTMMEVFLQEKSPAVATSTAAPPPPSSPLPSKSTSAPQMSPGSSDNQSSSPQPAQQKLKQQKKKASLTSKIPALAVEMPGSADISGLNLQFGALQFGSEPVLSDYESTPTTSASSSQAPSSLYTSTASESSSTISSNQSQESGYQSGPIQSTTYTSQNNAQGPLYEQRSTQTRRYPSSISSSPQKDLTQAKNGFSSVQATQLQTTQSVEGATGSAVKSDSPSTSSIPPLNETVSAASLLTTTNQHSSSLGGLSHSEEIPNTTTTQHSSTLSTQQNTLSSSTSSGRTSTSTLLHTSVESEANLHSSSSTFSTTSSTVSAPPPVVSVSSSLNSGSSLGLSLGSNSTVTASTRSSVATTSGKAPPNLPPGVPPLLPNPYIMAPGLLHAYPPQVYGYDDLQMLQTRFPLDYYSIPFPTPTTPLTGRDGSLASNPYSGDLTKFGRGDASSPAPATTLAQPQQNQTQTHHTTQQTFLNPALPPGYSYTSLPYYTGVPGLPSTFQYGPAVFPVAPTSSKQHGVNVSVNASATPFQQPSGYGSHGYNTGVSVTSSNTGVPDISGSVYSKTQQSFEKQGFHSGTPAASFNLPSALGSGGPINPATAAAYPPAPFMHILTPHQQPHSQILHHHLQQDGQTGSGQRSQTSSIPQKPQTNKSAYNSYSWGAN", "procedure": "(§1) Cells were grown to 90-95% confluence before being washed once with warm, sterile DPBS (1×, 5 mL), followed by addition of 10 mL of serum-free media (supplemented with 1% L-glutamine) containing either DMSO or SuTEx fragment (in DMSO) was added. Light cells were treated with DMSO vehicle while the heavy cells were treated with DMSO or SuTEx fragment (in DMSO) and incubated for 2 hrs. After 2 hrs, the cells were treated with SuTEx alkyne probe (HHS475, 10 μL of 1000× DMSO stock) and incubated for an additional 2 hrs. The media was aspirated and cells washed with cold PBS (5 mL) and harvested. Cells were spun at 500×g for 5 min at 4° C. followed by removal of supernatant. Pellets were resuspended in 1 mL of cold DPBS and spun at 1,400×g for 3 min at 4° C. followed by removal of supernatant. The cells were lysed in PBS by sonication and fractionated (100,000×g, 45 min, 4° C.).The light and heavy soluble fractions were diluted to 2.3 mg/mL in PBS and 432 μL were used for analysis (1 mg total protein). The probe-modified proteomes were conjugated to desthiobiotin-PEG3-azide (10 μl of 10 mM stock in DMSO; 200 μM final concentration) using TCEP (10 μl of fresh 50 mM stock in water, 1 mM final concentration), TBTA ligand (33 μl of a 1.7 mM 4:1 t-butanol/DMSO stock, 100 μM final concentration) and CuSO4 (10 μl of 50 mM stock, 1 mM final concentration). Samples were vortexed to mix and incubated for 1 hr at room temperature. The heavy and light proteomes were mixed 1:1 and the subsequent steps, including LC-MS/MS data analysis, were performed as previously described^[8a].\n(§2) Coupling cell-based screens with chemical proteomics can facilitate the identification of target protein and binding sites that engage and are irreversibly modified by covalent ligands^[12]. In these assays, covalent ligands block SuTEx activity-based probe (ABP) labeling at protein sites, and the competition of probe labeling can be used to quantify potency and selectivity across the proteome^[10a]. To facilitate quantitative chemical proteomics, DM93 melanoma cells were cultured using stable isotopic labeling by amino acids in cell culture (SILAC)^[13]. Cells cultured in “light” media were treated with dimethyl sulfoxide (DMSO) vehicle while cells cultured in “heavy” media were treated with SuTEx ligand (25 μM, 2 hours, 37° C.). Next, cells were treated with HHS-475 probe (100 μM, 2 hours, 37° C.) followed by lysis and processing of proteomes for analysis. Probe-modified proteins from the soluble fraction were conjugated to a desthiobiotin-azide tag by copper-catalyzed azide-alkyne cycloaddition (CuAAC)^[14] followed by mixing of the light and heavy proteomes. The combined proteomes were digested with trypsin protease to produce probe-modified peptides, followed by enrichment and purification by avidin affinity chromatography. Probe-modified peptides were resolved, identified, and quantified by high-resolution liquid chromatography-tandem mass spectrometry (LC-MS/MS). Resultant data were analyzed as previously described^[8a, 10a]. Table 2, below, lists sites of modification targeted by sulfonyl-triazole compounds HHS-0101, HHS-0201, HHS-0301, HHS-0401, and HHS-0701. The format of the table is as follows: protein Uniprot accession number (see uniprot.org); tyrosine site (amino acid position) modified; treatment (sulfonyl-triazole compound identification number, followed by Y (where if multiple compounds modify the same site, the compounds are separated by vertical lines)."}, "[2]": {"biological_target": "T2, Q9Y520 (Homo sapiens, UniProt Q9Y520)", "T2 construct": "endogenous in cells; host or cells: DM93 cells (SILAC)", "T2 sequence (Q9Y520 whole entry)": "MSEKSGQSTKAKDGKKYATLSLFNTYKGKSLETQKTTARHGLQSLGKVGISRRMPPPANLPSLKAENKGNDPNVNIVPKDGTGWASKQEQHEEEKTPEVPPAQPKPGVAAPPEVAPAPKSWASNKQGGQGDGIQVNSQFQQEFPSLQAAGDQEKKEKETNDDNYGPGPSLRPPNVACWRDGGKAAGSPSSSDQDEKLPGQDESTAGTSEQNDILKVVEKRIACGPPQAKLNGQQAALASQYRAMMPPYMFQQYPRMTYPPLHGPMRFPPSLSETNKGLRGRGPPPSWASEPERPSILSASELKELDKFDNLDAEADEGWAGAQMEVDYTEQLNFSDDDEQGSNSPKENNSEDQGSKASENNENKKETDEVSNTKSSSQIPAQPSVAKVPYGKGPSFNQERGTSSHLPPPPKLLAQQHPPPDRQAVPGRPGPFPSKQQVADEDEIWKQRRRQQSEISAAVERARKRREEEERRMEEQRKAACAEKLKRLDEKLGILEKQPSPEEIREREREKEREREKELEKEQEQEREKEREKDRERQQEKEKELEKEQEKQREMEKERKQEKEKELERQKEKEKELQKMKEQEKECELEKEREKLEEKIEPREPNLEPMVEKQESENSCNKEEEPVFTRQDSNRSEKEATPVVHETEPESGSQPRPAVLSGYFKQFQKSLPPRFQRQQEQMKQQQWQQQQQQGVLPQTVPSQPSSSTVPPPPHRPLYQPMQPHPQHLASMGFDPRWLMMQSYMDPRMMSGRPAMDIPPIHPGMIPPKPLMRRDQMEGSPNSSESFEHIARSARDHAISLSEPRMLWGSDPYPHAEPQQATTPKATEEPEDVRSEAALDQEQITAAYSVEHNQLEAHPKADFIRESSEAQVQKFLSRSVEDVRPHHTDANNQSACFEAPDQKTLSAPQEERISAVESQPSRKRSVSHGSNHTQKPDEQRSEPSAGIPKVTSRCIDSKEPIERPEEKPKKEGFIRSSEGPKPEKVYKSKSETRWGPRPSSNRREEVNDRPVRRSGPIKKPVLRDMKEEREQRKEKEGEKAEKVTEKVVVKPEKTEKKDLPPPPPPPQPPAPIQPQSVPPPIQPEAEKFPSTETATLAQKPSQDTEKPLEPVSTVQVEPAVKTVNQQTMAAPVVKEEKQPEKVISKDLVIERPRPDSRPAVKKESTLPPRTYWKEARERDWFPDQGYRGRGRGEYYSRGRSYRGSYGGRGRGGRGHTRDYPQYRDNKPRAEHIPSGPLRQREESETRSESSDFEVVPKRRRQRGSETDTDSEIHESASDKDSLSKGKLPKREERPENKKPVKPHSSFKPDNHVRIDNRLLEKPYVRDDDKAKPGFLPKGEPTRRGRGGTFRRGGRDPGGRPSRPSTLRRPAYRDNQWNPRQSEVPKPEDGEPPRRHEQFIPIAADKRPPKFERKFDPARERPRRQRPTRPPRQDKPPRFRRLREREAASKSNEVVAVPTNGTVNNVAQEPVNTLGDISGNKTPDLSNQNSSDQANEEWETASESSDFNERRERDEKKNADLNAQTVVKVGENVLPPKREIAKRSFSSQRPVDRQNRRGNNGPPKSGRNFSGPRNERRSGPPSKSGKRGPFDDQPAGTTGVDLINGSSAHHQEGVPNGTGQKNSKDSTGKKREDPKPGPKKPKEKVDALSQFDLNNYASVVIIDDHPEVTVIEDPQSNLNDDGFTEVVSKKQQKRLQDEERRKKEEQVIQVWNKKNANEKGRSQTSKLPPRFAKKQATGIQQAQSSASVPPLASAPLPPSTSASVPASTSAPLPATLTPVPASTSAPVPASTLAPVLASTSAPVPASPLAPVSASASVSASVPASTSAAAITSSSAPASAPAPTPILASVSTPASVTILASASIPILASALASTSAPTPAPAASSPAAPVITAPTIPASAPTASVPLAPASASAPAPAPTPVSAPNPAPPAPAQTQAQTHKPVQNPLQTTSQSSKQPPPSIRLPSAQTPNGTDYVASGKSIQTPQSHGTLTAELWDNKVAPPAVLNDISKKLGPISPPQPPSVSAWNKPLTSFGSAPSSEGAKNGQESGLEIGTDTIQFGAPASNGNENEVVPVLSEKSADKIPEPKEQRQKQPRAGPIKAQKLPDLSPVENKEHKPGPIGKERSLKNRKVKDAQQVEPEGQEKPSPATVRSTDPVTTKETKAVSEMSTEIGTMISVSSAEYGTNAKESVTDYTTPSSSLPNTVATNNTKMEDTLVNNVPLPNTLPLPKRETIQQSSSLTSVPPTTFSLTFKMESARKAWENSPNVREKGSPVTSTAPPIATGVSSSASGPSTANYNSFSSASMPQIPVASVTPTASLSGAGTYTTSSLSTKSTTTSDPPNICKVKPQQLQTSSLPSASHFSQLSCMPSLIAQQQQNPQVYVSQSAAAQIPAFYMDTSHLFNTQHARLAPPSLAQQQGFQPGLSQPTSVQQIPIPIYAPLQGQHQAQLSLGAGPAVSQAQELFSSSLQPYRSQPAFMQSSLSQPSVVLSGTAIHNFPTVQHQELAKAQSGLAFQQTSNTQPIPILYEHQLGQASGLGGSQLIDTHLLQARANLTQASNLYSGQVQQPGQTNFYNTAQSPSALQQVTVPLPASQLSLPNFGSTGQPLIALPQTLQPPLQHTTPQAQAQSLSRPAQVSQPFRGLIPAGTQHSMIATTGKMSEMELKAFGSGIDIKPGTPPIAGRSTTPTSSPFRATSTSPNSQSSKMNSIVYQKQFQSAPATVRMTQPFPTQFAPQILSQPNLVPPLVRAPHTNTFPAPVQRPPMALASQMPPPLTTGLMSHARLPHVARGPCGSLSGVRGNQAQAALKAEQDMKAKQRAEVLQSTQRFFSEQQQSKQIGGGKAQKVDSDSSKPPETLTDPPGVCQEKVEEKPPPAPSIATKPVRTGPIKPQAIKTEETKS", "procedure": "as §1, §2"}, "[3]": {"biological_target": "T3, Q96AT1 (Homo sapiens, UniProt Q96AT1)", "T3 construct": "endogenous in cells; host or cells: DM93 cells (SILAC), treated live; soluble proteome analysed", "T3 sequence (Q96AT1 whole entry)": "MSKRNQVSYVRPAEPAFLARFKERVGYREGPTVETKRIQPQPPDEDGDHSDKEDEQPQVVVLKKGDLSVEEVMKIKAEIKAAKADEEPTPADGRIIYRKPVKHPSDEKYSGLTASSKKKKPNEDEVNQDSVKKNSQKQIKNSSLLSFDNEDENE", "procedure": "as §1, §2"}, "[4]": {"biological_target": "T4, Q9Y6D5 (Homo sapiens, UniProt Q9Y6D5)", "T4 construct": "endogenous in cells; host or cells: DM93 cells (SILAC)", "T4 sequence (Q9Y6D5 whole entry)": "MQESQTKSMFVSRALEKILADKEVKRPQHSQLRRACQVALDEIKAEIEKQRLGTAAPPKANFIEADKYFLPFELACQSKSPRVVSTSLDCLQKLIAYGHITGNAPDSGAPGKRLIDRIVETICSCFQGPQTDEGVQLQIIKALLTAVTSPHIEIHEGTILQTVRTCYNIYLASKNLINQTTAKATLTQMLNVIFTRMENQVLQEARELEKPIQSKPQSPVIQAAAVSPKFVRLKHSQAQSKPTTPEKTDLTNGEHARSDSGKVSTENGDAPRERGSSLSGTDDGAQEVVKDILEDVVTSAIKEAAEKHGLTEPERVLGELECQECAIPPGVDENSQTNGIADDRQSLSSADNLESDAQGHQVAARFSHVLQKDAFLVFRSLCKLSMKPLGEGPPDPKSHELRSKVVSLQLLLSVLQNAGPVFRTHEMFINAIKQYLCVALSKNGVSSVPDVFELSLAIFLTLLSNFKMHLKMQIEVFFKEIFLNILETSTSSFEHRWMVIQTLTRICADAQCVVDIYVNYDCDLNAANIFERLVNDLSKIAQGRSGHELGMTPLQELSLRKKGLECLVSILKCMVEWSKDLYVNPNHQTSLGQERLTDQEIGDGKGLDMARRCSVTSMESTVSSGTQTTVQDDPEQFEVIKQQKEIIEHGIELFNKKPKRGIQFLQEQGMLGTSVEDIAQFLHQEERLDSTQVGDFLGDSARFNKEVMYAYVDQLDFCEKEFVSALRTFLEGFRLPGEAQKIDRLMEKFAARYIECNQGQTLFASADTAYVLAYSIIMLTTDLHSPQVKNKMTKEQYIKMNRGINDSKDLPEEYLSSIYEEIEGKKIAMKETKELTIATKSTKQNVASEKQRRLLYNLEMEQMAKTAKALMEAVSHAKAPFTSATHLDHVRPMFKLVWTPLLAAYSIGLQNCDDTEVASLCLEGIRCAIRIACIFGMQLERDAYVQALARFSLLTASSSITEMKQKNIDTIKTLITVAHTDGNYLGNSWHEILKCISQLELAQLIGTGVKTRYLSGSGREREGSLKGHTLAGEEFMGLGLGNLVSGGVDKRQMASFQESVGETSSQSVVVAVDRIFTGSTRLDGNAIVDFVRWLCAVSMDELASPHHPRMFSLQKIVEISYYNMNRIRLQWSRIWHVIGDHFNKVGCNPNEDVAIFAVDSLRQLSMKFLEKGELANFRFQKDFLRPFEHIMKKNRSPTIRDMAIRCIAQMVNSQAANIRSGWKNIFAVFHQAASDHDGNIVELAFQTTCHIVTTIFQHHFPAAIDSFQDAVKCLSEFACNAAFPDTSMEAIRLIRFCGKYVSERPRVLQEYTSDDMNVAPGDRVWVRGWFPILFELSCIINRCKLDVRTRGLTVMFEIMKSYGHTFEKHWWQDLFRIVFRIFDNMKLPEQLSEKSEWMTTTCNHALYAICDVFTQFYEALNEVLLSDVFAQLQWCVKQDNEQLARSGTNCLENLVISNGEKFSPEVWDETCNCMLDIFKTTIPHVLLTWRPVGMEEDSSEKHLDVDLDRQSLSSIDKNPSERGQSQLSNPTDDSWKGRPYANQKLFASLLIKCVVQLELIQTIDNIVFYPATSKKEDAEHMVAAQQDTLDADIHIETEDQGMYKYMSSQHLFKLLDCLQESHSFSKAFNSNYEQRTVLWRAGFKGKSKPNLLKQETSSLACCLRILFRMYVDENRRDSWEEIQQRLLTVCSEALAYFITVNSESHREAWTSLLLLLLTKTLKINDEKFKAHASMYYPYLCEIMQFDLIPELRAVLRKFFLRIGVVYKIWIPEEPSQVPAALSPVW", "procedure": "as §1, §2"}}}
{"smiles": "O=C(NCC1CC1)c1ccc(S(=O)(=O)n2cncn2)cc1", "note": "[HHS-0201, 4-((1H-1,2,4-triazol-1-yl)sulfonyl)-N-(cyclopropylmethyl)benzamide]", "values": [{"measurement": "liganded tyrosine site 204", "setting": "[1]", "value": "HHS0201.Y (tyrosine sites that showed >80% reductions (SR >5) in probe labeling in cells treated with compounds (liganded sites))"}, {"measurement": "liganded tyrosine site 214", "setting": "[1]", "value": "HHS0201.Y (tyrosine sites that showed >80% reductions (SR >5) in probe labeling in cells treated with compounds (liganded sites))"}, {"measurement": "liganded tyrosine site 26", "setting": "[2]", "value": "HHS0201.Y (tyrosine sites that showed >80% reductions (SR >5) in probe labeling in cells treated with compounds (liganded sites))"}]}
{"smiles": "O=C(NC1CC1)c1ccc(S(=O)(=O)n2cncn2)cc1", "note": "[HHS-0101, 4-((1H-1,2,4-triazol-1-yl)sulfonyl)-N-cyclopropylbenzamide]", "values": [{"measurement": "liganded tyrosine site 9", "setting": "[3]", "value": "HHS0101.Y (tyrosine sites that showed >80% reductions (SR >5) in probe labeling in cells treated with compounds (liganded sites))"}, {"measurement": "liganded tyrosine site 1632", "setting": "[4]", "value": "HHS0101.Y|HHS0301.Y|HHS0701.Y (tyrosine sites that showed >80% reductions (SR >5) in probe labeling in cells treated with compounds (liganded sites))"}]}
{"smiles": "O=C(NCc1ccccc1)c1ccc(S(=O)(=O)n2cncn2)cc1", "note": "[HHS-0401, 4-((1H-1,2,4-triazol-1-yl)sulfonyl)-N-benzylbenzamide]", "values": [{"measurement": "liganded tyrosine site 803", "setting": "[1]", "value": "HHS0401.Y (tyrosine sites that showed >80% reductions (SR >5) in probe labeling in cells treated with compounds (liganded sites))"}, {"measurement": "liganded tyrosine site 109", "setting": "[3]", "value": "HHS0401.Y (tyrosine sites that showed >80% reductions (SR >5) in probe labeling in cells treated with compounds (liganded sites))"}, {"measurement": "liganded tyrosine site 2707", "setting": "[2]", "value": "HHS0401.Y (tyrosine sites that showed >80% reductions (SR >5) in probe labeling in cells treated with compounds (liganded sites))"}, {"measurement": "liganded tyrosine site 97", "setting": "[4]", "value": "HHS0401.Y (tyrosine sites that showed >80% reductions (SR >5) in probe labeling in cells treated with compounds (liganded sites))"}]}
